Consider 1 compound from patent EP0187355A1, “Process for preparing beta-lactam antibiotics” (E.R. Squibb & Sons, Inc., priority 1981, dated 1982).

Common to all, as to experiment: MIC, agar dilution
Common to all, as to assay type: cell-based
A general note: In agar dilution, organisms are placed on agar that contains the substance at set levels.

Assay [1] deals with Acinetobacter calcoaceticus, 8333. The note with it: K-10 agar, 10^4 CFU, 37°C, 18 hours. Here is the method: (§1) The following methodology is used to determine the minimum inhibitory concentration (hereinafter referred to as MIC) of the […] of this invention.
(§2) The test organisms are grown in approximately 15-20 ml of Antibiotic Assay broth (Difco) by inoculating (in tubes) the broth with a loopful of the organism from a BHI (Difco) agar slant. The inoculated tubes are incubated at 37°C for 18 to 20 hours. These cultures are assumed to contain 10^9 colony forming units (hereinafter CFU) per milliliter. The cultures are diluted 1:100 to give a final inoculum level of 10^4 CFU; dilutions are made with K-10 broth^*.
(§3) The compounds are dissolved in the appropriate diluent at a concentration of 1000 µg/ml. Twofold dilutions are made in K-10 broth resulting in a range from 1000 µg/ml to 0.5 µg/ml. 1.5 ml of each dilution is placed into individual square petri dishes to which 13.5 ml of K-10 agar^** is added. The final drug concentration in the agar ranges from 100 µg/ml to 0.05 µg/ml. Organism growth control plates containing agar only are prepared and inoculated before and after the test plates. The organisms are applied to the agar surface of each plate with the Denley Multipoint Inoculator (which delivers approximately 0.001 ml of each organism) resulting in a final inoculum level of 10^4 CFU on the agar surface.
(§4) The plates are incubated at 37 °C for 18 hours and the MIC's are determined. The MIC is the lowest concentration of compound inhibiting growth of the organism.
(§5) The tables that follow are tabulated results obtained when the B-lactams of this invention are tested against various organisms. The number following each organism refers to the number of the organism in the collection of E. R. Squibb & Sons,.Inc., Princeton, New Jersey. […] The symbol "N.T." means not tested.

The test system of assay [2] is Citrobacter freundii, 9518. The following applies: K-10 agar, 10^4 CFU, 37°C, 18 hours. Here is the method:
as §1, §2, §3, §4, §5

Assay [3] relates to Enterobacter aerogenes, 10078. The note with it: Enterobacter aerogenes, 10078; K-10 agar, 10^4 CFU, 37°C, 18 hours. As to the method:
as §1, §2, §3, §4, §5

In the next assay the test system is Escherichia coli, 10857. The following applies: K-10 agar, 10^4 CFU, 37°C, 18 hours. Here is the method:
as §1, §2, §3, §4, §5

The next assay concerns Escherichia coli, 10896. The following applies: K-10 agar, 10^4 CFU, 37°C, 18 hours. Here is the method: as §1, §2, §3, §4, §5
Another assay has as its system Escherichia coli, 8294. The note with it: K-10 agar, 10^4 CFU, 37°C, 18 hours. Here is the method:
as §1, §2, §3, §4, §5

Assay [4] concerns Klebsiella aerogenes, 10440. The note with it: K-10 agar, 10^4 CFU, 37°C, 18 hours. Here is the method: as §1, §2, §3, §4, §5
Assay [5] concerns Klebsiella pneumoniae, 9527. The following applies: K-10 agar, 10^4 CFU, 37°C, 18 hours. Here is the method:
as §1, §2, §3, §4, §5

In another assay the test system is Proteus mirabilis, 3855. The note with it: K-10 agar, 10^4 CFU, 37°C, 18 hours. As to the method: as §1, §2, §3, §4, §5
For another assay, the system named is Proteus rettgeri, 8479. The note with it: K-10 agar, 10^4 CFU, 37°C, 18 hours. Here is the method: as §1, §2, §3, §4, §5
The next assay concerns Proteus vulgaris, 9416. The note with it: K-10 agar, 10^4 CFU, 37°C, 18 hours. Here is the method: as §1, §2, §3, §4, §5
For assay [6], the system named is Pseudomonas aeruginosa, 8329. The note with it: K-10 agar, 10^4 CFU, 37°C, 18 hours. Here is the method: as §1, §2, §3, §4, §5
The subject of assay [7] is Pseudomonas aeruginosa, 9545. The following applies: K-10 agar, 10^4 CFU, 37°C, 18 hours. As to the method: as §1, §2, §3, §4, §5
Another assay has as its system Salmonella typhosa, 1195. The note with it: K-10 agar, 10^4 CFU, 37°C, 18 hours. Here is the method:
as §1, §2, §3, §4, §5

Assay [8] relates to Serratia marcescens, 9783. The note with it: K-10 agar, 10^4 CFU, 37°C, 18 hours. Here is the method: as §1, §2, §3, §4, §5
The next assay concerns Shigella sonnei, 8449. The note with it: K-10 agar, 10^4 CFU, 37°C, 18 hours. As to the method: as §1, §2, §3, §4, §5
Assay [9] relates to Staphylococcus aureus, 10165. The following applies: Staphylococcus aureus, 10165; K-10 agar, 10^4 CFU, 37°C, 18 hours. Here is the method:
as §1, §2, §3, §4, §5

In assay [10] the test system is Staphylococcus aureus, 1276. The note with it: Staphylococcus aureus, 1276; K-10 agar, 10^4 CFU, 37°C, 18 hours. Here is the method:
as §1, §2, §3, §4, §5

For assay [11], the system named is Staphylococcus aureus, 2399. The following applies: Staphylococcus aureus, 2399; K-10 agar, 10^4 CFU, 37°C, 18 hours. As to the method: as §1, §2, §3, §4, §5
Assay [12] deals with Staphylococcus aureus, 2400. The following applies: Staphylococcus aureus, 2400; K-10 agar, 10^4 CFU, 37°C, 18 hours. As to the method:
as §1, §2, §3, §4, §5

For assay [13], the system named is Streptococcus faecalis, 9011. The following applies: Streptococcus faecalis, 9011; K-10 agar, 10^4 CFU, 37°C, 18 hours. As to the method: as §1, §2, §3, §4, §5

Counter-ions that a name gives are not always drawn.

For `C[C@@H]1[C@H](NC(=O)/C(=N\OC(C)(C)C(=O)O)c2csc(N)n2)C(=O)N1S(=O)(=O)O` [Example 23, [3S-(3α(Z),4a]]-3-[[(2-Amino-4-thiazolyl) [(1-carboxy-1-methylethoxy)imino)acetyl]amino]-4-methyl-2-oxo-l-azetidinesulfonic acid, potassium salt (1:2)], the M.I.C. is 25 µg/mL in assay [1]; 0.4 µg/mL in [2]; 0.8 µg/mL in assay [3]; 0.1 µg/mL with Escherichia coli, 10857; 0.2 µg/mL with Escherichia coli, 10896; 0.2 µg/mL in the assay with Escherichia coli, 8294. The M.I.C. was determined as 0.4 µg/mL in [4]; 0.05 µg/mL in assay [5]; 0.05 µg/mL with Proteus mirabilis, 3855; 0.05 µg/mL in the assay with Proteus rettgeri, 8479; 0.05 µg/mL with Proteus vulgaris, 9416; 1.6 µg/mL in assay [6]. In addition, the M.I.C. in [7] is 0.4 µg/mL; with Salmonella typhosa, 1195, 0.05 µg/mL; in assay [8], 0.2 µg/mL; in the assay with Shigella sonnei, 8449 it was 0.1 µg/mL; in assay [9], “- (A dash (-) in the tables means that the compound tested did not show activity against the particular organism at 100 µg/ml)”; in assay [10], “- (A dash (-) in the tables means that the compound tested did not show activity against the particular organism at 100 µg/ml)”. In addition, the M.I.C. result in assay [11], in assay [12] and in assay [13] was “- (A dash (-) in the tables means that the compound tested did not show activity against the particular organism at 100 µg/ml)” each time.
